# Assay results published in PubChem BioAssay AID2060900 (Molecular Pharmacology Branch, DTP, NCI, 2025).
# System: 521955-158-R2-J5-PDC complex spheroids, viability
# Experiment: Anticancer human tumor 521955-158-R2-J5-PDC patient-derived pancreatic carcinoma cell line growth inhibition [RAS]
# Conditions: for viability, T/C: stronger effect = lower value
# In short: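 Agents were tested in combination matrices in half-log decrements from a top concentration at or near clinical Cmax (10 microM if undetermined). Targets were multi-cell spheroids of tumour lines plus HUVEC and MSC stromal cells.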
# 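Further: compound exposure lasted seven days before the viability read.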
# 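Wherever viability, T/C is given: spheroids also contain HUVEC endothelial cells and mesenchymal stem cells as stroma.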
structure (smiles),measurement,setting,value
CC1(C)CCC(Nc2ncc(C(F)(F)F)c(-c3c[nH]c4c(P(C)(C)=O)c(C#N)ccc34)n2)CN1 (stereo unspecified) + CCn1c(-c2cc(N3CCN(C)CC3)cnc2C(C)OC)c2c3cc(ccc31)-c1csc(n1)CC(NC(=O)C1CC1C)C(=O)N1CCCC(N1)C(=O)OCC(C)(C)C2,IC50,"curve of first compound, second compound 0.000949 µM",< 0.949 nM
same,IC50,"curve of first compound, second compound 0.003 µM",< 0.949 nM
same,IC50,"curve of first compound, second compound 0.00949 µM",< 0.949 nM
same,IC50,"curve of first compound, second compound 0.03 µM",< 0.949 nM
same,IC50,"curve of first compound, second compound 0.0949 µM",< 0.949 nM
same,IC50,"curve of first compound, second compound 0.3 µM",< 0.949 nM
same,"viability, T/C","second compound 0.000949 µM, first compound 0.000949 µM",33.7%
same,"viability, T/C","second compound 0.000949 µM, first compound 0.003 µM",32%
same,"viability, T/C","second compound 0.000949 µM, first compound 0.00949 µM",33.4%
same,"viability, T/C","second compound 0.000949 µM, first compound 0.03 µM",30.9%
same,"viability, T/C","second compound 0.000949 µM, first compound 0.0949 µM",39.5%
same,"viability, T/C","second compound 0.000949 µM, first compound 0.3 µM",40.5%
same,"viability, T/C","second compound 0.003 µM, first compound 0.000949 µM",34.6%
same,"viability, T/C","second compound 0.003 µM, first compound 0.003 µM",26.5%
same,"viability, T/C","second compound 0.003 µM, first compound 0.00949 µM",18%
same,"viability, T/C","second compound 0.003 µM, first compound 0.03 µM",23.1%
same,"viability, T/C","second compound 0.003 µM, first compound 0.0949 µM",23.4%
same,"viability, T/C","second compound 0.003 µM, first compound 0.3 µM",31.7%
same,"viability, T/C","second compound 0.00949 µM, first compound 0.000949 µM",24.2%
same,"viability, T/C","second compound 0.00949 µM, first compound 0.003 µM",23.6%
same,"viability, T/C","second compound 0.00949 µM, first compound 0.00949 µM",20.4%
same,"viability, T/C","second compound 0.00949 µM, first compound 0.03 µM",16.6%
same,"viability, T/C","second compound 0.00949 µM, first compound 0.0949 µM",15.1%
same,"viability, T/C","second compound 0.00949 µM, first compound 0.3 µM",19.4%
same,"viability, T/C","second compound 0.03 µM, first compound 0.000949 µM",12.3%
same,"viability, T/C","second compound 0.03 µM, first compound 0.003 µM",17.6%
same,"viability, T/C","second compound 0.03 µM, first compound 0.00949 µM",9.79%
same,"viability, T/C","second compound 0.03 µM, first compound 0.03 µM",7.37%
same,"viability, T/C","second compound 0.03 µM, first compound 0.0949 µM",8.43%
same,"viability, T/C","second compound 0.03 µM, first compound 0.3 µM",7.63%
same,"viability, T/C","second compound 0.0949 µM, first compound 0.000949 µM",8.04%
same,"viability, T/C","second compound 0.0949 µM, first compound 0.003 µM",7.4%
same,"viability, T/C","second compound 0.0949 µM, first compound 0.00949 µM",8.22%
same,"viability, T/C","second compound 0.0949 µM, first compound 0.03 µM",5.8%
same,"viability, T/C","second compound 0.0949 µM, first compound 0.0949 µM",4.67%
same,"viability, T/C","second compound 0.0949 µM, first compound 0.3 µM",4.29%
same,"viability, T/C","second compound 0.3 µM, first compound 0.000949 µM",8.35%
same,"viability, T/C","second compound 0.3 µM, first compound 0.003 µM",7.65%
same,"viability, T/C","second compound 0.3 µM, first compound 0.00949 µM",4.3%
same,"viability, T/C","second compound 0.3 µM, first compound 0.03 µM",4.81%
same,"viability, T/C","second compound 0.3 µM, first compound 0.0949 µM",3.91%
same,"viability, T/C","second compound 0.3 µM, first compound 0.3 µM",5.79%
CC(C)n1nc(-c2ccc3oc(N)nc3c2)c2c(N)ncnc21,"viability, T/C",compound 0.000316 µM,94.1% [middle of 4 runs]
same,"viability, T/C",compound 0.001 µM,101% [middle of 4 runs]
same,"viability, T/C",compound 0.00316 µM,96.2% [middle of 4 runs]
same,"viability, T/C",compound 0.01 µM,65.3% [middle of 4 runs]
same,"viability, T/C",compound 0.0316 µM,44.3% [middle of 4 runs]
same,"viability, T/C",compound 0.1 µM,37% [middle of 4 runs]
same,IC50,curve of compound,21.3 nM [middle of 4 runs]
CCc1c2c(nc3ccc(O)cc13)-c1cc3c(c(=O)n1C2)COC(=O)[C@]3(O)CC + C#Cc1c(F)ccc2cc(O)cc(-c3ncc4c(N5CC6CCC(C5)N6)nc(OCC56CCCN5CC(F)C6)nc4c3F)c12,IC50,"curve of first compound, second compound 0.0316 µM",2.36 nM
same,IC50,"curve of first compound, second compound 0.1 µM",< 0.949 nM
same,IC50,"curve of first compound, second compound 0.316 µM",1.13 nM
same,IC50,"curve of first compound, second compound 1 µM",< 0.949 nM
same,IC50,"curve of first compound, second compound 3.16 µM",< 0.949 nM
same,IC50,"curve of first compound, second compound 10 µM",< 0.949 nM
same,"viability, T/C","second compound 0.0316 µM, first compound 0.000949 µM",68.1%
same,"viability, T/C","second compound 0.0316 µM, first compound 0.003 µM",40.9%
same,"viability, T/C","second compound 0.0316 µM, first compound 0.00949 µM",35.7%
same,"viability, T/C","second compound 0.0316 µM, first compound 0.03 µM",20.7%
same,"viability, T/C","second compound 0.0316 µM, first compound 0.0949 µM",15.3%
same,"viability, T/C","second compound 0.0316 µM, first compound 0.3 µM",9.62%
same,"viability, T/C","second compound 0.1 µM, first compound 0.000949 µM",43.4%
same,"viability, T/C","second compound 0.1 µM, first compound 0.003 µM",34.2%
same,"viability, T/C","second compound 0.1 µM, first compound 0.00949 µM",26.9%
same,"viability, T/C","second compound 0.1 µM, first compound 0.03 µM",22.5%
same,"viability, T/C","second compound 0.1 µM, first compound 0.0949 µM",11.4%
same,"viability, T/C","second compound 0.1 µM, first compound 0.3 µM",12.5%
same,"viability, T/C","second compound 0.316 µM, first compound 0.000949 µM",51.9%
same,"viability, T/C","second compound 0.316 µM, first compound 0.003 µM",39.5%
same,"viability, T/C","second compound 0.316 µM, first compound 0.00949 µM",23.8%
same,"viability, T/C","second compound 0.316 µM, first compound 0.03 µM",18.3%
same,"viability, T/C","second compound 0.316 µM, first compound 0.0949 µM",14.3%
same,"viability, T/C","second compound 0.316 µM, first compound 0.3 µM",8.89%
same,"viability, T/C","second compound 1 µM, first compound 0.000949 µM",41.1%
same,"viability, T/C","second compound 1 µM, first compound 0.003 µM",36.1%
same,"viability, T/C","second compound 1 µM, first compound 0.00949 µM",18.4%
same,"viability, T/C","second compound 1 µM, first compound 0.03 µM",16.6%
same,"viability, T/C","second compound 1 µM, first compound 0.0949 µM",11.3%
same,"viability, T/C","second compound 1 µM, first compound 0.3 µM",10.6%
same,"viability, T/C","second compound 3.16 µM, first compound 0.000949 µM",41.4%
same,"viability, T/C","second compound 3.16 µM, first compound 0.003 µM",34.6%
same,"viability, T/C","second compound 3.16 µM, first compound 0.00949 µM",24.7%
same,"viability, T/C","second compound 3.16 µM, first compound 0.03 µM",15.8%
same,"viability, T/C","second compound 3.16 µM, first compound 0.0949 µM",12.8%
same,"viability, T/C","second compound 3.16 µM, first compound 0.3 µM",5.72%
same,"viability, T/C","second compound 10 µM, first compound 0.000949 µM",30%
same,"viability, T/C","second compound 10 µM, first compound 0.003 µM",23%
same,"viability, T/C","second compound 10 µM, first compound 0.00949 µM",16.8%
same,"viability, T/C","second compound 10 µM, first compound 0.03 µM",15.5%
same,"viability, T/C","second compound 10 µM, first compound 0.0949 µM",11.2%
same,"viability, T/C","second compound 10 µM, first compound 0.3 µM",11.8%
